≈ marks a conversion by molar mass, not a printed value.

The subject of experiment [1] is Methicillin-resistant S. aureus (MRSA 33591). Put plainly: Minimal inhibitory concentration (MIC), broth microdilution, MRSA. It counts as cell-based. The following applies: Staphylococcus aureus, read-out: MIC (minimum inhibitory concentration). How it is done: (§1) Minimal inhibitory concentration (MICs) assays were performed using the broth microdilution method set forth in NCCLS guidelines (see, NCCLS. 2000. Methods for Dilution Antimicrobial Susceptibility Tests for Bacteria That Grow Aerobically; Approved Standard—Fifth Ed., Vol. 20, No. 2). Bacterial strains were obtained from the American Type Tissue Culture Collection (ATCC), Stanford University Hospital (SU), Kaiser Permanente Regional Laboratory in Berkeley (KPB), Massachusetts General Hospital (MGH), the Centers for Disease Control (CDC), the San Francisco Veterans' Administration Hospital (SFVA) or the University of California San Francisco Hospital (UCSF). Vancomycinresistant enterococci were phenotyped as Van A or Van B based on their sensitivity to teicoplanin. Some vancomycin-resistant enterococci that had been genotyped as Van A, Van B, Van C1 or Van C2 were also obtained from the Mayo Clinic.
(§2) In this assay, cryopreserved bacterial cultures of reference and clinical strains were streaked for isolation on appropriate agar medium (i.e., Trypticase Soy Agar, Trypticase Soy Agar with defibrinated sheep erthrocytes, Brain Heart Infusion Agar, Chocolate Agar). Following incubation to allow formation of colonies, these plates were sealed with parafilm and stored refrigerated for up to two weeks. […] The MIC was read visually as the lowest concentration well with no bacterial growth. […]
Background: Dilution methods test growth across graded concentrations, often in twofold steps.

In experiment [2] the test system is Methicillin-sensitive S. aureus (MSSA 13709). Put plainly: Minimal inhibitory concentration (MIC), broth microdilution, MSSA. It counts as cell-based. The following applies: Staphylococcus aureus, read-out: MIC (minimum inhibitory concentration). How it is done: as §1, §2
Another experiment relates to MSSA 13709. Put plainly: Time-kill assay, MSSA. Format: cell-based, Staphylococcus aureus. The following applies: bactericidal in 24 hours.
In experiment [3] the test system is MRSA 33591. Put plainly: Time-kill assay, MRSA. The settings on record: bactericidal in 24 hours. Format: cell-based, Staphylococcus aureus.
Procedure: Time-Kill Assay This time-kill assay is a method for measuring the rate of bactericidal activity of a test compound.
Bacteria were diluted in prewarmed media in shake flasks and incubated with shaking (200 rpm, 35° C.). At 0, 1, 4, and 24 hours samples were withdrawn from the flasks and bacteria were enumerated by plate counting. Subsequent to the initial sampling, a compound to be assayed was added to the shake flask culture. Plate counts at these intervals previous to and following addition of the compound were expressed graphically in a time-kill curve.
The test system of experiment [4] is MRSA 33591. In words: In vivo efficacy in neutropenic mice (thigh infection). The settings on record: Staphylococcus aureus; neutropenic male CD-1 mice, MRSA 33591 thigh infection, iv, 24 hours post-treatment; read-out: ED50 (dose required to produce 50% of the maximum reduction in thigh titre). On the procedure: In vivo Efficacy Studies in Neutropenic Mice Animals (male CD-1 mice, 20-30 g) were acquired from Charles Rivers Laboratories (Gilroy, Calif.) and allowed access to food and water ad libitum. Neutropenia was induced via 200 mg/kg intraperitoneal (IP) injection of cyclophosphamide given four and two days prior to the inoculation of bacteria.
The organism used was either a susceptible or resistant strain of clinically relevant gram positive pathogens, such as methicillin-susceptible Staphylococcus aureus (MSSA 13709) and methicillin-resistant Staphylococcus aureus (MRSA 33591). The bacterial inoculum concentration was ˜10^6 CFU/mL. Animals were lightly anesthetized with isoflurane and […] of the bacterial inoculum was injected into the anterior thigh. One hour after the inoculation, animals were dosed intravenously with vehicle or the appropriate dose of the test compound. At 0 hours and 24 hours post-treatment, the animals were euthanized (CO2 asphyxiation) and the anterior and posterior thigh collected aseptically. The thigh was placed into 10 mL sterile saline and homogenized. Dilutions of the homogenate were plated onto triptic soy agar plates which were incubated overnight. The number of bacterial colonies on a given plate was multiplied by the dilution factor, divided by the thigh weight (in grams) and expressed as log CFU/g. […]

As for `CN[C@H](CC(C)C)C(=O)N[C@H]1C(=O)N[C@@H](CC(N)=O)C(=O)N[C@H]2C(=O)N[C@H]3C(=O)N[C@H](C(=O)N[C@H](C(=O)O)c4cc(O)cc(O)c4-c4cc3ccc4O)[C@H](O)c3ccc(c(Cl)c3)Oc3cc2cc(c3O[C@@H]2O[C@H](CO)[C@@H](O)[C@H](O)[C@H]2O[C@H]2C[C@](C)(N)[C@H](O)[C@H](C)O2)Oc2ccc(cc2Cl)[C@H]1O` [Vancomycin, vancomycin], the results for the MIC in experiment [1] and in experiment [2] were 2 µg/mL (≈ 1.38 µM) and 1 µg/mL (≈ 0.69 µM), respectively. In addition, the “concentration at which bactericidal (≧3 log decrease in bacterial cell numbers)” value with MSSA 13709 and in the experiment with MRSA 33591 [3] was 4 μg/mL throughout. Further, the ED50 with MRSA 33591 [4] is 9 mg/kg.

A word on the ED50: it is the dose at which the effect has come halfway, by size or by number of responders.
